{"source": "patent US20040087571A1", "about": "“Methods of using CCR1 antagonists as immunomodulatory agents” (Pfizer Inc, priority 2002, published 2004)", "key": {"[1]": {"experiment": "Solubility", "assay_type": "physicochemical"}}}
{"smiles": "CC(C)(O)CC[C@H](C[C@H](O)[C@H](Cc1cccs1)NC(=O)c1cnc2ccccc2n1)C(N)=O", "note": "[Example 313, Quinoxaline-2-carboxylic Acid (4(r)-carbamoyl-2(s),7-dihydroxy-7-methyl-1(s)-thiophen-2-ylmethyl-octyl)-amide]", "values": [{"measurement": "solubility", "setting": "[1]", "result": "> 250", "unit": "mg/mL"}]}
{"smiles": "Cc1cccc(C[C@H](C[C@H](O)[C@H](Cc2ccccc2)NC(=O)c2cnc3ccccc3n2)C(N)=O)c1", "note": "[Example 293, Quinoxaline-2-carboxylic acid (1(S)-benzyl-4(R)-carbamoyl-2(S)-hydroxy-5-m-tolyl-pentyl)-amide]", "values": [{"measurement": "melting point", "result": "178 to 179", "unit": "°C"}]}
{"smiles": "NC(=O)[C@@H](C[C@H](O)[C@H](Cc1ccccc1)NC(=O)c1ccc2ccccc2n1)C1CCCCC1", "note": "[Example 262, Quinoline-2-carboxylic acid (1(S)-benzyl-4(S)-carbamoyl-4-cyclohexyl-2(S)-hydroxy-butyl)-amide]", "values": [{"measurement": "melting point", "result": "208 to 210", "unit": "°C"}]}
{"smiles": "NC(=O)C1(C[C@H](O)[C@H](Cc2ccccc2)NC(=O)c2cnc3ccccc3n2)Cc2ccccc2C1", "note": "[Example 164, Quinoxaline-2-carboxylic acid [1(S)-benzyl-3-(2-carbamoyl-indan-2-yl)-2(S)-hydroxy-propyl]-amide]", "values": [{"measurement": "melting point", "result": "90 to 100", "unit": "°C"}]}
{"smiles": "NC(=O)[C@@H](C[C@H](O)[C@H](Cc1ccccc1)NC(=O)c1cnc2ccccc2n1)C1CCOCC1", "note": "[Example 204, Quinoxaline-2-carboxylic acid [1(S)-benzyl-4(S)-carbamoyl-2(S)-hydroxy-4-(tetrahydro-pyran-4-yl)-butyl]-amide]", "values": [{"measurement": "melting point", "result": "151 to 154", "unit": "°C"}]}
{"smiles": "NC(=O)[C@@H](C[C@H](O)[C@H](Cc1ccccc1)NC(=O)c1cnc2ccccc2n1)C1(O)C2CC3CC(C2)CC1C3", "note": "(stereo partly drawn) [Example 295, Quinoxaline-2-carboxylic acid [1(S)-benzyl-4(S)-carbamoyl-2(S)-hydroxy-4-(2-hydroxy-adamantan-2-yl)-butyl]-amide]", "values": [{"measurement": "melting point", "result": "206 to 207", "unit": "°C"}]}
